The values below come from PubChem BioAssay (NCI).

Test systems include SW-620 colon; HOP-92 NSCLC; COLO 205 colon; K-562 leukemia; SF-295 CNS; HCT-116 colon; HL-60(TB) leukemia; UO-31 renal; PC-3 prostate.
What all share (experiment): NCI-60 cell line screen, 48 h

Values joined by “and” are separate entries in the source; they are usually repeats but may differ in a detail not shown here. Equal entries are not always repeated.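 Following 48 hours of exposure in 96-well plates, responses at five concentrations were used to interpolate endpoints linearly. Here, GI50 denotes the concentration required for 50% inhibition of growth. TGI: total growth inhibition.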

Consider `N#Cc1cccnc1Cl`, for which the TGI in the assay on SW-620 colon, with HOP-92 NSCLC, in the assay on COLO 205 colon, in the assay on K-562 leukemia, in the assay on SF-295 CNS and with HCT-116 colon was greater than 100 µM each time. In addition, the TGI with HL-60(TB) leukemia and with UO-31 renal was greater than 100 µM in each case.
Regarding `O=C(NCO)NCOCn1c(=O)n(CO)c(=O)n(CO)c1=O`, the TGI in the assay with SW-620 colon was 56.4 µM; in the assay with COLO 205 colon it was greater than 71.8 µM; in the assay with K-562 leukemia, greater than 79.2 µM; in the assay with SF-295 CNS, greater than 100 µM; in the assay on HCT-116 colon, 96.2 µM; in the assay on HL-60(TB) leukemia it was 47.5 µM. Besides, in the assay with UO-31 renal, the TGI was greater than 100 µM.
Consider `Clc1ccc2c(c1)-c1c3c(nn1-c1ccccc1)-c1ccccc1SC3O2` (stereo not given), for which the TGI in the assay with SW-620 colon, in the assay with HOP-92 NSCLC, with COLO 205 colon, in the assay on K-562 leukemia, with SF-295 CNS and with HCT-116 colon was greater than 100 µM each time. Further, the TGI with HL-60(TB) leukemia and in the assay with UO-31 renal was greater than 100 µM each time.
With `CN(C)c1cc[c]([Sn]([c]2ccc(N(C)C)cc2)([c]2ccc(N(C)C)cc2)[c]2ccc(N(C)C)cc2)cc1`, the GI50 in the assay on SW-620 colon is 4.66 µM; in the assay on HOP-92 NSCLC, 8.08 µM; in the assay on COLO 205 colon it was 4.19 µM; in the assay with K-562 leukemia it was 2.02 µM; in the assay on SF-295 CNS, 10.9 µM; with HCT-116 colon, 3.94 µM. For the same compound, the GI50 is 1.89 µM in the assay on HL-60(TB) leukemia and 8.76 µM in the assay with UO-31 renal. Further, the TGI with SW-620 colon is 20.5 µM; in the assay on HOP-92 NSCLC, 20.5 µM; in the assay with COLO 205 colon it was 17.7 µM; in the assay on K-562 leukemia it was 7.33 µM; in the assay on SF-295 CNS, 25.7 µM; with HCT-116 colon it was 13.9 µM. In addition, the TGI in the assay with HL-60(TB) leukemia was found to be 6.93 µM; with UO-31 renal, 21.1 µM.
`COc1cc(NC(C)CCCN)c2nccc(C)c2c1` (stereo not given): the TGI with HOP-92 NSCLC was greater than 100 µM; in the assay with COLO 205 colon it was 28.4 µM; with SF-295 CNS, 35.4 µM; in the assay on HCT-116 colon it was 29.3 µM; with HL-60(TB) leukemia it was 21.1 µM; in the assay with UO-31 renal, 53.8 µM.
`CCCSc1nc(COC(=O)NC)c(COC(=O)NC)n1C`: the TGI with SW-620 colon, in the assay on HOP-92 NSCLC, with COLO 205 colon, in the assay on K-562 leukemia, with SF-295 CNS and with HCT-116 colon was greater than 100 µM throughout. In addition, the TGI in the assay on HL-60(TB) leukemia is 89.6 µM and > 100 µM; with UO-31 renal, greater than 100 µM.
With `Cc1c(C(=O)/C=C/c2ccccc2)[n+](=O)c2ccccc2n1[O-]`, the TGI amounted to 28.3 µM with SW-620 colon; 28 µM in the assay on HOP-92 NSCLC; 29.8 µM in the assay with COLO 205 colon; 51.9 µM with K-562 leukemia; 31.5 µM in the assay with SF-295 CNS; 32.4 µM in the assay with HCT-116 colon. Further, the TGI stood at 40.7 µM with HL-60(TB) leukemia and 34.2 µM with UO-31 renal.
Consider `C=CC/C=C/C/C=C/CCCCCCCc1cccc(O)c1C(=O)O`, for which the TGI in the assay on SW-620 colon is greater than 100 µM; with HOP-92 NSCLC it was 75 µM; in the assay on COLO 205 colon, greater than 100 µM; in the assay on K-562 leukemia it was greater than 100 µM; in the assay with SF-295 CNS, greater than 100 µM; in the assay on HCT-116 colon, greater than 100 µM. In addition, the TGI with HL-60(TB) leukemia was greater than 100 µM; with UO-31 renal it was 79.1 µM.
With `O=C1[C@@H]2C(c3ccccc3F)=NO[C@@H]2C(=O)N1c1ccc(Cc2ccc(N3C(=O)[C@H]4C(c5ccccc5F)=NO[C@H]4C3=O)cc2)cc1`, the TGI with SW-620 colon, with HOP-92 NSCLC, in the assay on COLO 205 colon, in the assay on K-562 leukemia, in the assay with SF-295 CNS and in the assay on HCT-116 colon was greater than 100 µM throughout. Further, the results for the TGI with HL-60(TB) leukemia and in the assay on UO-31 renal were 34.7 µM and greater than 100 µM, respectively.
Regarding `c1ccc(C2Nc3ccccc3C3OCCCC23)cc1` (stereo not given), the TGI in the assay on SW-620 colon was greater than 100 µM; in the assay on HOP-92 NSCLC, 70.5 µM; in the assay on COLO 205 colon, greater than 100 µM; in the assay on K-562 leukemia, greater than 100 µM; in the assay with SF-295 CNS, 37.4 µM; with HCT-116 colon, 87.3 µM. Also, the results for the TGI in the assay with HL-60(TB) leukemia and in the assay with UO-31 renal were 51.1 µM and greater than 100 µM, respectively.
Regarding `COc1c(CCl)cc(-c2cc(=O)c3ccccc3s2)cc1CCl`, the TGI in the assay on PC-3 prostate is greater than 100 µM; in the assay with HOP-92 NSCLC, 1.8 µM; in the assay with COLO 205 colon it was greater than 100 µM; in the assay with K-562 leukemia, greater than 100 µM; in the assay with SF-295 CNS it was 36.1 µM; in the assay with HCT-116 colon it was greater than 100 µM. For the same compound, the TGI is greater than 23.6 µM with HL-60(TB) leukemia and 3.84 µM in the assay on UO-31 renal.
For `CSC(C1c2ccccc2N(c2ccc(C)cc2)c2[nH]c(=O)n(C)c(=O)c21)S(=O)(=O)c1ccc(C)cc1` (stereo not given), the TGI in the assay with SW-620 colon, in the assay on HOP-92 NSCLC, in the assay with COLO 205 colon, in the assay with K-562 leukemia, with SF-295 CNS and in the assay on HCT-116 colon was greater than 100 µM in each case. The TGI in the assay with HL-60(TB) leukemia and in the assay on UO-31 renal was greater than 100 µM in each case.
Consider `C1C[OH+]CC[OH+]CC[OH+]CC[OH+]CC[OH+]1.[Cl-].[V]`, for which the GI50 was greater than 100 µM in the assay with SW-620 colon; 34.3 µM in the assay on HOP-92 NSCLC; greater than 100 µM in the assay on COLO 205 colon; greater than 100 µM with K-562 leukemia; 28.5 µM in the assay on SF-295 CNS; greater than 100 µM with HCT-116 colon. Also, the GI50 is greater than 100 µM in the assay with HL-60(TB) leukemia and 86.3 µM in the assay with UO-31 renal. In addition, the TGI with SW-620 colon, in the assay on HOP-92 NSCLC, in the assay with COLO 205 colon, with K-562 leukemia, in the assay with SF-295 CNS and in the assay on HCT-116 colon was greater than 100 µM in each case. Also, the TGI in the assay on HL-60(TB) leukemia and with UO-31 renal was greater than 100 µM in each case.
On to `O=C(Nc1c(Cl)cc([N+](=O)[O-])cc1Cl)C(=O)C(C1OC(=O)c2ccccc21)[N+](=O)[O-]` (stereo not given), for which the TGI is greater than 100 µM in the assay with SW-620 colon; 99.1 µM with HOP-92 NSCLC; greater than 100 µM in the assay on COLO 205 colon; greater than 100 µM in the assay on K-562 leukemia; greater than 100 µM in the assay on SF-295 CNS; greater than 100 µM in the assay on HCT-116 colon. For the same compound, the TGI with HL-60(TB) leukemia and with UO-31 renal was greater than 100 µM each time.
